# Measurements from patent publication US6369088B2, “Substituted 3-phenyl-5-alkoxy-1,3,4-oxadiazol-2-ones, their preparation and their use as pharmaceuticals” (Aventis Pharma Deutschland GmbH, priority 2000, dated 2002).
# Counter-ions that a name gives are not always drawn. Like-named read-outs stand apart in the source and are kept apart here.
# What was measured:
# [1] = target: T1, hormone-sensitive lipase (HSL) (Rattus norvegicus, UniProt P15304); experiment: HSL enzyme assay: [3H]trioleoylglycerol hydrolysis by partially purified HSL; type: biochemical
# T1 construct: Isolated rat fat cells were obtained from epididymal adipose tissue; from tissue; host or cells: rat epididymal adipose tissue (isolated fat cells, Wistar rats)
# T1 sequence (P15304 1-768 isoform P15304-2): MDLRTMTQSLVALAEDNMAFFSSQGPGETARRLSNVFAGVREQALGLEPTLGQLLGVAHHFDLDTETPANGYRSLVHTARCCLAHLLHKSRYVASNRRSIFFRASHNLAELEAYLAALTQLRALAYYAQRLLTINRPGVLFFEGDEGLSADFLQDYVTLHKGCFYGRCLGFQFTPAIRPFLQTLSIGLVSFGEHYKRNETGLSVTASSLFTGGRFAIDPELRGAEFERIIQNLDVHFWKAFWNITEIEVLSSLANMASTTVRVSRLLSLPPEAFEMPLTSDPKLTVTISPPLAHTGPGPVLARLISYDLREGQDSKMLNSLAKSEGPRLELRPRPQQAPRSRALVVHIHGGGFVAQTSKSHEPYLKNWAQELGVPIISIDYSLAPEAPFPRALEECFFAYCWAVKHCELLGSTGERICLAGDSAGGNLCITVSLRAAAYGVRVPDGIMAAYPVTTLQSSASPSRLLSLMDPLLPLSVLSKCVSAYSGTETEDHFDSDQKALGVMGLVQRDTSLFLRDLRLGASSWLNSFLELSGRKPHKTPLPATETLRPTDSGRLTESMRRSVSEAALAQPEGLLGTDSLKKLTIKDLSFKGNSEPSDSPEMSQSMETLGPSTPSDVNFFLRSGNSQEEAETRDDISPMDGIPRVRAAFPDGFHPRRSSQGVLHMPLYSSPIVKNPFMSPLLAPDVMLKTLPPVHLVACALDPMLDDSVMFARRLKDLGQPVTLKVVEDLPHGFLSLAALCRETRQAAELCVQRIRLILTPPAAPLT
# Protocol: The effect of the compounds of the invention on HSL was tested using the following enzyme assay system:
# Preparation of Partially Purified HSL:
# The fat cells from 10 rats were washed three times by flotation with 50 ml each time of homogenization buffer ([…] tris/HCl, pH 7.4, 0.25 M sucrose, 1 mM EDTA, 1 mM DTT, 10 μg/ml leupeptin, 10 μg/ml antipain, 20 μg/ml pepstatin) and finally taken up in 10 ml of homogenization buffer. The fat cells were homogenized in a Teflon-in-glass homogenizer (Braun-Melsungen) by 10 strokes at 1500 rpm and 15° C. The homogenate was centrifuged (Sorvall SM24 tubes, 5000 rpm, 10 min, 4° C.). The subnatant between the fatty layer at the top and the pellet was removed and the centrifugation was repeated. The subnatant resulting therefrom was recentrifuged (Sorvall SM24 tubes, 20000 rpm, 45 min, 4° C.). […] After the mixture had been incubated at 4° C. for 60 min (shaking at 15-min intervals), it was centrifuged (Sorvall SM24 tubes, 3000 rpm, 10 min, 4° C.). The supernatant was adjusted to pH 5.2 by adding glacial acetic acid and incubated at 4° C. for 30 min. The precipitates were collected by centrifugation (Sorvall SS34, 12000 rpm, 10 min, 4° C.) and suspended in 2.5 ml of 20 mM tris/HCl, pH 7.0,1 mM EDTA, 65 mM NaCl, 13% sucrose, 1 mM DTT, 10 μg/ml leupeptin/pepstatin/antipain. The suspension was dialyzed against 25 mM tris/HCl, pH 7.4, 50% glycerol, 1 mM DTT, 10 μg/ml leupeptin, pepstatin, antipain at 4° C. overnight and then loaded onto a hydroxy apatite column (0.1 g per 1 ml of suspension, equilibrated with 10 mM potassium phosphate, pH 7.0, 30% glycerol, 1 mM DTT). The column was washed with four volumes of equilibration buffer at a flow rate of 20 to 30 ml/h. The HSL was eluted with one volume of equilibration buffer containing 0.5 M potassium phosphate, and then dialyzed (see above) and concentrated 5- to 10-fold by ultrafiltration (Amicon Diaflo PM 10 filter) at 4° C. The partially purified HSL can be stored at −70° C. for 4 to 6 weeks.
# To prepare the substrate, 25-50 μCi of [^3H]trioleoylglycerol (in toluene), 6.8 μmol of unlabeled trioleoylglycerol and 0.6 mg of phospholipids (phosphatidylcholine/phosphatidylinositol 3:1 w/v) were mixed, dried with N2 and then taken up in 2 ml of 0.1 M KPi (pH 7.0) by ultrasonic treatment (Branson 250, microtip, setting 1-2, 2×1 min at 1-min intervals). After addition of 1 ml of KPi and renewed ultrasonic treatment (4×30 sec on ice in 30-sec intervals), 1 ml of 20% BSA (in KPi) was added (final concentration of trioleoylglycerol 1.7 mM). For the reaction, 100 μl of substrate solution were pipetted into 100 μl of HSL solution (HSL prepared as above, diluted in 20 mM KPi, pH 7.0, 1 mM EDTA, 1 mM DTT, 0.02% BSA, 20 μg/ml pepstatin, 10 μg/ml leupeptin) and incubated at 37° C. for 30 min. […] After phase separation, one equivalent of the upper phase (1 ml) was removed and the radioactivity was determined by liquid scintillation measurement.
# Substances were normally tested in four independent mixtures. The inhibition of the HSL enzymatic activity by a test substance was determined by comparison with an uninhibited control reaction. The IC50 was calculated via an inhibition plot with at least 10 concentrations of the test substance. The data was analyzed using the software package GRAPHIT, Elsevier-BIOSOFT.
# [2] = partially purified HSL from rat fat cells, [3H]trioleoylglycerol substrate, 37° C., 30 min, read-out: IC50
Compound,"IC50 [1, 2] [nM]",melting point [°C],IC50 [1] [nM]
"5-Methoxy-3-[3-[(3-trifluoromethylphenoxy)benzylamino]phenyl]-3H-[1,3,4]oxadiazol-2-one trifluoroacetate [Example 166]",200,–,–
"COc1nn(-c2cccc(OCc3ccc(F)cc3)c2[N+](=O)[O-])c(=O)o1 [Example 22, 5-Methoxy-3-(3-(4-fluorobenzyloxy)-2-nitrophenyl)-3H-(1,3,4)oxadiazol-2-one]",1000,99,–
"COc1nn(-c2ccc(N)c(C)c2)c(=O)o1 [Example 28, 5-Methoxy-3-(4-amino-3-methylphenyl)-3H-(1,3,4)oxadiazol-2-one]",6000,114,–
"COc1nn(-c2ccc(NC(=O)Cc3ccc(Cl)cc3)cc2)c(=O)o1 [Example 30, 5-Methoxy-3-(4-(4-chlorophenylacetylamino)phenyl)-3H-(1,3,4)oxadiazol-2-one]",1000,–,–
"CCCCCCCC(=O)Nc1ccc(-n2nc(OC)oc2=O)cc1C [Example 32, 5-Methoxy-3-(4-octanoylamino-3-methylphenyl)-3H-(1,3,4)oxadiazol-2-one]",3000,110,–
"CCCCCCCc1ccc(C(=O)Nc2ccc(-n3nc(OC)oc3=O)cc2)cc1 [Example 33, 5-Methoxy-3-(4-(4-heptylbenzoylamino)phenyl)-3H-(1,3,4)oxadiazol-2-one]",200,155,–
"CCCCc1ccc(S(=O)(=O)Nc2ccc(-n3nc(OC)oc3=O)cc2)cc1 [Example 34, 5-Methoxy-3-(4-(4-butylphenylsulfonylamino)phenyl)-3H-(1,3,4)oxadiazol-2-one]",1000,135,–
"COc1nn(-c2ccc(NS(=O)(=O)c3ccc(Cl)cc3)c(C)c2)c(=O)o1 [Example 37, 5-Methoxy-3-(4-(4-chlorophenylsulfonylamino)-3-methylphenyl)-3H-(1,3,4)oxadiazol-2-one]",1000,147,–
"COc1nn(-c2ccc(NS(=O)(=O)c3cccc4ccccc34)c(C)c2)c(=O)o1 [Example 38, 5-Methoxy-3-(4-(1-naphthylsulfonylamino)-3-methylphenyl)-3H-(1,3,4)oxadiazol-2-one]",1000,123,–
"COc1nn(-c2ccc(NS(=O)(=O)C=Cc3ccccc3)c(C)c2)c(=O)o1 [Example 39, 5-Methoxy-3-(4-(2-phenylethenylsulfonylamino)-3-methylphenyl)-3H-(1,3,4)oxadiazol-2-one]",1000,129,–
"COc1nn(-c2ccc(NC(=O)OCc3ccccc3)c(C)c2)c(=O)o1 [Example 41, 5-Methoxy-3-(4-(benzyloxycarbonylamino)-3-methylphenyl)-3H-(1,3,4)oxadiazol-2-one]",100,–,–
"COc1nn(-c2ccc(-n3c(C)ccc3C)c(C)c2)c(=O)o1 [Example 54, 5-Methoxy-3-(4-(2,5-dimethylpyrrol-1-yl)-3-methylphenyl)-3H-(1,3,4)oxadiazol-2-one]",1000,–,–
"COc1nn(-c2cccc(NCc3ccccc3)c2)c(=O)o1 [Example 58, 5-Methoxy-3-(3-benzylaminophenyl)-3H-(1,3,4)oxadiazol-2-one]",800,–,–
"COc1nn(-c2ccc(NC(=O)OCc3ccccc3)c(OCc3ccc(F)cc3)c2)c(=O)o1 [Example 60, 5-Methoxy-3-(3-(4-fluorobenzyloxy)-4-benzyloxycarbonylaminophenyl)-3H-(1,3,4)oxadiazol-2-one]",200,–,–
"COc1nn(-c2ccc(NC(=O)c3ccc(C(C)(C)C)cc3)cc2)c(=O)o1 [Example 69, 5-Methoxy-3-(4-(4-t-butylbenzoylamino)phenyl)-3H-(1,3,4)oxadiazol-2-one]",30,–,–
"COc1nn(-c2ccc(NS(=O)(=O)c3ccc(OC)c(OC)c3)cc2)c(=O)o1 [Example 92, 3,4-Dimethoxy-N-[4-(5-methoxy-2-oxo-[1,3,4]oxadiazol-3-yl)-phenyl]benzenesulfon-amide]",250,–,–
"COc1nn(-c2ccc(NC(=O)c3ccccc3F)cc2)c(=O)o1 [Example 97, 2-Fluoro-N-[4-(5-methoxy-2-oxo-[1,3,4]oxadiazol-3-yl)phenyl]-benzamide]",30,–,–
"CCCCCCCCCCC(=O)Nc1ccc(-n2nc(OC)oc2=O)cc1 [Example 107, Undecanoic acid [4-(5-methoxy-2-oxo-[1,3,4]oxadiazol-3-yl)phenyl]amide]",120,–,–
"COc1nn(-c2ccc(NC(=O)CCCC(=O)c3ccccc3)cc2)c(=O)o1 [Example 116, 5-Oxo-5-phenylpentanoic acid [4-(5-methoxy-2-oxo-[1,3,4]-oxadiazol-3-yl)phenyl]amide]",100,–,–
"COc1nn(-c2cccc(NC(=O)Nc3c(OC)cccc3OC)c2)c(=O)o1 [Example 128, 1-(2,6-Dimethoxyphenyl)-3-[3-(5-methoxy-2-oxo-[1,3,4]oxadiazol-3-yl)phenyl]urea]",600,–,–
"COc1nn(-c2ccc(NCc3ccc(C#N)cc3)cc2)c(=O)o1 [Example 130, 4-[[4-(5-Methoxy-2-oxo-[1,3,4]oxadiazol-3-yl)phenylamino]methyl]-benzonitrile tri-fluoroacetate]",–,–,500
"COc1nn(-c2ccc(NCc3ccc(OCc4ccccc4)cc3)cc2)c(=O)o1 [Example 136, 3-[4-(4-Benzyloxybenzylamino)phenyl]-5-methoxy-3H-[1,3,4]oxadiazol-2-one trifluoroacetate]",500,–,–
"COc1nn(-c2ccc(NCC3CCCCC3)cc2)c(=O)o1 [Example 139, 3-[4-(Cyclohexylmethylamino)phenyl]-5-methoxy-3H-[1,3,4]oxadiazol-2-one]",400,–,–
"CCCCCCOc1ccc(CNc2ccc(-n3nc(OC)oc3=O)cc2)cc1 [Example 142, 3-[4-(4-Hexyloxybenzylamino)phenyl]-5-methoxy-3H-[1,3,4]oxadiazol-2-one trifluoroacetate]",200,–,–
"CCOc1ccccc1NC(=O)Nc1ccc(-n2nc(OC)oc2=O)cc1 [Example 152, 1-(2-Ethoxyphenyl)-3-[4-(5-methoxy-2-oxo-[1,3,4]oxadiazol-3-yl)phenyl]urea]",200,–,–
"CCCCCC=CCCCNc1cccc(-n2nc(OC)oc2=O)c1 [Example 171, 3-(3-Dec-4-enylaminophenyl)-5-methoxy-3H-[1,3,4]oxadiazol-2-one trifluoroacetate]",600,–,–
